Experimental findings from patent US20220041583A1, “IMMUNOMODULATORS, COMPOSITIONS AND METHODS THERE OF” (BETTA PHARMACEUTICALS CO., LTD, priority 2018, published 2022) are described below.

The target of one assay is T1, PD-1/PD-L1 (Homo sapiens, UniProt Q9NZQ7).
T1 construct: Recombinant human PD-L1 protein (19-238) with a His-tag at the C-terminus; purchased AcroBiosystems PD1-H5229 (PD-L1); PD1-H5257 (PD-1)
T1 sequence (Q9NZQ7 19-238): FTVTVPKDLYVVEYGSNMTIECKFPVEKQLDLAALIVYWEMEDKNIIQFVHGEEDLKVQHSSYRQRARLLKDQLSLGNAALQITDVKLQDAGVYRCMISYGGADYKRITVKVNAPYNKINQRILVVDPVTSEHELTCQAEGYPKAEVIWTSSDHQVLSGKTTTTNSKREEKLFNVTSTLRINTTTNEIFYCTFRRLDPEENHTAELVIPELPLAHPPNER
The experiment in a line: PD-1/PD-L1 homogenous time-resolved fluorescence (HTRF) binding assay. To be noted: Table 6, class symbols. As for the experimental part:
Resolved Fluorescence (HTRF) Binding Assay
The assays were conducted in a standard black 384-well polystyrene plate with a final volume of 20 μL. Inhibitors were first serially diluted in DMSO and then added to the plate wells before the addition of other reaction components. The final concentration of DMSO in the assay was 1%. The assays were carried out at 25° C. in the PBS buffer (pH 7.4) with 0.05% Tween-20 and 0.1% BSA. Recombinant human PD-L1 protein (19-238) with a His-tag at the C-terminus was purchased from AcroBiosy stems (PD1-H5229). Recombinant human PD-1 protein (25-167) with Fc tag at the C-terminus was also purchased from AcroBiosystems (PD1-H5257). PD-L1 and PD-1 proteins were diluted in the assay buffer and 10 μL was added to the plate well. Plates were centrifuged and proteins were preincubated with inhibitors for 40 min. The incubation was followed by the addition of 10 μL of HTRF detection buffer supplemented with Europium cryptate-labeled anti-human IgG (PerkinElmer-AD0212) specific for Fc and anti-His antibody conjugated to SureLight®-Allophycocyanin (APC, PerkinElmer-AD0059H). After centrifugation, the plate was incubated at 25° C. for 60 min. Before reading on a PHERAstar FS plate reader (665 nm/620 nm ratio). Final concentrations in the assay were […] PD1, 10 nM PD-L1, 1 nM europium anti-human IgG and 20 nM anti-His-Allophycocyanin. IC50 determination was performed by fitting the curve of percent control activity versus the log of the inhibitor concentration using the GraphPad Prism 5.0 software.
Background: TR-FRET usually uses a lanthanide donor and a delayed reading to cut background.
Usually IC50 stands for the point on the concentration scale where inhibition reaches its midpoint. A lower IC50 goes with higher potency. `Cc1c(-c2ccccc2)cccc1-c1nc2cc(CN3CCC[C@@H]3C(=O)O)c(OC(F)F)cc2o1` [Example 37, ((6-(difluoromethoxy)-2-(2-methyl-[1,1′-biphenyl]-3-yl)benzo[d]oxazol-5-yl)methyl)-D-proline] came in with an IC50 of 0.01 to 0.1 µM. Regarding `Cc1c(-c2ccccc2)cccc1-c1nc2cc(CN3CCCC[C@H]3C(=O)O)c(OCC(F)(F)F)cc2o1` [Example 54, (S)-1-((2-(2-methyl-[1,1′-biphenyl]-3-yl)-6-(2,2,2-trifluoroethoxy)benzo[d]oxazol-5-yl)methyl)piperidine-2-carboxylic acid], the IC50 fell in the range of 0.01 to 0.1 µM.

For the molecule `CSc1cc2oc(-c3cccc(-c4ccccc4)c3C)nc2cc1CN1CCC[C@@H]1C(=O)O` [Example 7, ((2-(2-methyl-[1,1′-biphenyl]-3-yl)-6-(methylthio)benzo[d]oxazol-5-yl)methyl)-D-proline], the IC50 lay in the range of 0.0001 to 0.01 µM.

In the case of `Cc1c(-c2ccccc2)cccc1-c1nc2cc(CN3CCC[C@H]3C(=O)O)c(S(C)(=O)=O)cc2o1` [Example 66, ((2-(2-methyl-[1,1′-biphenyl]-3-yl)-6-(methylsulfonyl)benzo[d]oxazol-5-yl)methyl)-L-proline], the half-maximal inhibitory concentration (IC50) is 0.0001 to 0.01 µM. Still for that read-out and setting: for `Cc1c(-c2ccccc2)cccc1-c1nc2cc3c(cc2o1)OC[C@@H](C(=O)O)NC3` [Example 70, (S)-2-(2-methyl-[1,1′-biphenyl]-3-yl)-6,7,8,9-tetrahydrooxazolo[5′,4′:4,5]benzo[1,2-f][1,4]oxazepine-7-carboxylic acid] the value was 0.1 to 1 µM; for `Cc1c(-c2ccccc2)cccc1-c1nc2cc(CN3CCCCC3CO)c(OC(F)F)cc2o1` (stereo not drawn) [Example 38, (1-((6-(difluoromethoxy)-2-(2-methyl-[1,1′-biphenyl]-3-yl)benzo[d]oxazol-5-yl)methyl)piperidin-2-yl)methanol], 0.0001 to 0.01 µM; for `CC[C@H](NCc1cc2nc(-c3cccc(-c4ccccc4)c3C)oc2cc1SC)C(=O)O` [Example 10, (S)-2-(((2-(2-methyl-[1,1′-biphenyl]-3-yl)-6-(methylthio)benzo[d]oxazol-5-yl)methyl)amino)butanoic acid], 0.0001 to 0.01 µM. On the same count and under the same terms, the value for `Cc1c(-c2ccccc2)cccc1-c1nc2cc(CN3CCCCC3C(=O)O)c(C#N)cc2o1` (stereo not drawn) [Example 26, 1-((6-cyano-2-(2-methyl-[1,1′-biphenyl]-3-yl)benzo[d]oxazol-5-yl)methyl)piperidine-2-carboxylic acid] was 0.0001 to 0.01 µM; that for `Cc1c(-c2ccccc2)cccc1-c1nc2cc3c(cc2o1)OCCN(C)C3` [Example 67, 8-methyl-2-(2-methyl-[1,1′-biphenyl]-3-yl)-6,7,8,9-tetrahydrooxazolo[5′,4′:4,5]benzo[1,2-f][1,4]oxazepine] was 0.1 to 1 µM; that for `N#Cc1c(-c2ccccc2)cccc1-c1nc2cc(CN3CCOC[C@H]3C(=O)O)c(OCC(F)(F)F)cc2o1` [Example 57, (S)-4-((2-(2-cyano-[1,1′-biphenyl]-3-yl)-6-(2,2,2-trifluoroethoxy)benzo[d]oxazol-5-yl)methyl)morpholine-3-carboxylic acid] was 0.01 to 0.1 µM. In the case of `Cc1c(-c2ccccc2)cccc1-c1nc2cc(CN3CCC[C@H]3C(=O)O)c(OC(F)(F)F)cc2o1` [Example 63, ((2-(2-methyl-[1,1′-biphenyl]-3-yl)-6-(trifluoromethoxy)benzo[d]oxazol-5-yl)methyl)-L-proline], the IC50 was in the range of 0.0001 to 0.01 µM. The same measure, in the same setting: the value for `CC[C@@H](NCc1cc2nc(-c3cccc(-c4ccccc4)c3C)oc2cc1SC)C(=O)O` [Example 11, (R)-2-(((2-(2-methyl-[1,1′-biphenyl]-3-yl)-6-(methylthio)benzo[d]oxazol-5-yl)methyl)amino)butanoic acid] was 0.01 to 0.1 µM. Same read-out and setting: for `Cc1c(-c2ccccc2)cccc1-c1nc2cc(CN3CCOC[C@H]3C(=O)O)c(OCC(F)(F)F)cc2o1` [Example 58, (S)-4-((2-(2-methyl-[1,1′-biphenyl]-3-yl)-6-(2,2,2-trifluoroethoxy)benzo[d]oxazol-5-yl)methyl)morpholine-3-carboxylic acid] the value was 0.01 to 0.1 µM; for `CSc1cc2oc(-c3cccc(-c4ccccc4)c3C)nc2cc1CN1CCCCC1CO` (stereo not drawn) [Example 8, (1-((2-(2-methyl-[1,1′-biphenyl]-3-yl)-6-(methylthio)benzo[d]oxazol-5-yl)methyl)piperidin-2-yl)methanol], 0.01 to 0.1 µM. The same measure, in the same setting: the value for `CSc1cc2oc(-c3cccc(-c4ccccc4)c3C)nc2cc1CN1CCOC[C@H]1C(=O)O` [Example 9, (S)-4-((2-(2-methyl-[1,1′-biphenyl]-3-yl)-6-(methylthio)benzo[d]oxazol-5-yl)methyl)morpholine-3-carboxylic acid] was 0.0001 to 0.01 µM; that for `Cc1c(-c2ccccc2)cccc1-c1nc2cc(CN[C@H](C)C(=O)O)c(OC(F)F)cc2o1` [Example 34, ((6-(difluoromethoxy)-2-(2-methyl-[1,1′-biphenyl]-3-yl)benzo[d]oxazol-5-yl)methyl)-D-alanine] was 0.01 to 0.1 µM. Consider `Cc1c(-c2ccccc2)cccc1-c1nc2cc(CN3CCCCC3C(=O)O)c3c(c2o1)C(=O)CO3` (stereo not drawn) [Example 73, 1-((2-(2-methyl-[1,1′-biphenyl]-3-yl)-8-oxo-7,8-dihydrobenzofuro[5,4-d]oxazol-5-yl)methyl)piperidine-2-carboxylic acid], for which the IC50 fell in the range of 0.1 to 1 µM.

On to `Cc1c(-c2ccccc2)cccc1-c1nc2cc(CN[C@H](C)C(=O)O)c(OCC(F)(F)F)cc2o1` [Example 56, ((2-(2-methyl-[1,1′-biphenyl]-3-yl)-6-(2,2,2-trifluoroethoxy)benzo[d]oxazol-5-yl)methyl)-D-alanine], for which the concentration for half-maximal inhibition (IC50) lay in the range of 0.01 to 0.1 µM.

The molecule `CSc1cc2oc(-c3cccc(-c4ccccc4)c3C)nc2cc1CN[C@H](C)C(=O)O` [Example 6, ((2-(2-methyl-[1,1′-biphenyl]-3-yl)-6-(methylthio)benzo[d]oxazol-5-yl)methyl)-D-alanine] yielded an IC50 of 0.01 to 0.1 µM. On the same count and under the same terms, the value for `Cc1c(-c2ccccc2)cccc1-c1nc2cc(CN3CC[C@H](O)C3)c(F)cc2o1` [Example 23, (S)-1-((6-fluoro-2-(2-methyl-[1,1′-biphenyl]-3-yl)benzo[d]oxazol-5-yl)methyl)pyrrolidin-3-ol] was 0.01 to 0.1 µM. Molecule `CC[C@@H](NCc1cc2nc(-c3cccc(-c4ccccc4)c3C)oc2cc1OC(F)F)C(=O)O` [Example 41, (R)-2-(((6-(difluoromethoxy)-2-(2-methyl-[1,1′-biphenyl]-3-yl)benzo[d]oxazol-5-yl)methyl)amino)butanoic acid] gave an IC50 of 0.01 to 0.1 µM. In turn, `Cc1c(-c2ccccc2)cccc1-c1nc2cc(CN[C@@H](C)C(=O)O)c(OC(F)F)cc2o1` [Example 33, ((6-(difluoromethoxy)-2-(2-methyl-[1,1′-biphenyl]-3-yl)benzo[d]oxazol-5-yl)methyl)-L-alanine] registered a 50% inhibitory concentration (IC50) of 0.0001 to 0.01 µM. Turning to `CSc1cc2oc(-c3cccc(-c4ccccc4)c3C)nc2cc1CN[C@@H](CO)C(=O)O` [Example 13, ((2-(2-methyl-[1,1′-biphenyl]-3-yl)-6-(methylthio)benzo[d]oxazol-5-yl)methyl)-L-serine], the IC50 lay in the range of 0.0001 to 0.01 µM.

`N#Cc1c(-c2ccccc2)cccc1-c1nc2cc(CN3CCC[C@H]3C(=O)O)c(OC(F)F)cc2o1` [Example 44, ((2-(2-cyano-[1,1′-biphenyl]-3-yl)-6-(difluoromethoxy)benzo[d]oxazol-5-yl)methyl)-L-proline] registered an IC50 of 0.0001 to 0.01 µM. Same read-out and setting: for `Cc1c(-c2ccccc2)cccc1-c1nc2cc(CNCC(=O)O)c(OC(F)F)cc2o1` [Example 35, ((6-(difluoromethoxy)-2-(2-methyl-[1,1′-biphenyl]-3-yl)benzo[d]oxazol-5-yl)methyl)glycine] the value was 0.0001 to 0.01 µM; for `Cc1c(-c2ccccc2)cccc1-c1nc2cc(CN[C@@H](C)C(=O)O)c(OCC(F)(F)F)cc2o1` [Example 59, ((2-(2-methyl-[1,1′-biphenyl]-3-yl)-6-(2,2,2-trifluoroethoxy)benzo[d]oxazol-5-yl)methyl)-L-alanine], 0.01 to 0.1 µM.

Molecule `Cc1c(-c2ccccc2)cccc1-c1nc2cc(CN3CCCC3(C)C(=O)O)c(OC(F)F)cc2o1` (stereo not drawn) [Example 50, 1-((6-(difluoromethoxy)-2-(2-methyl-[1,1′-biphenyl]-3-yl)benzo[d]oxazol-5-yl)methyl)-2-methylpyrrolidine-2-carboxylic acid] returned an IC50 of 0.0001 to 0.01 µM.

The assay is the same for the next values; noted with them: Table 6, numeric values.
In turn, `Cc1c(-c2ccccc2)cccc1-c1nc2cc(CN3CCC[C@H]3C(=O)O)c([S+](C)[O-])cc2o1` (stereo partly drawn) [Example 65, ((2-(2-methyl-[1,1′-biphenyl]-3-yl)-6-(methylsulfinyl)benzo[d]oxazol-5-yl)methyl)-L-proline] gave an IC50 of 0.005 µM. That is a single-digit nanomolar value. Turning to `Cc1c(-c2ccccc2)cccc1-c1nc2cc(CN[C@@H](CO)C(=O)O)c(OC(F)F)cc2o1` [Example 43, ((6-(difluoromethoxy)-2-(2-methyl-[1,1′-biphenyl]-3-yl)benzo[d]oxazol-5-yl)methyl)-L-serine], the IC50 worked out at 0.0018 µM. Same read-out and setting: for `Cc1c(-c2ccccc2)cccc1-c1nc2cc(CN[C@H](C(=O)O)[C@H](C)O)c(OC(F)F)cc2o1` [Example 31, ((6-(difluoromethoxy)-2-(2-methyl-[1,1′-biphenyl]-3-yl)benzo[d]oxazol-5-yl)methyl)-L-allothreonine] the value was 0.0032 µM.
